Data taken from ChEMBL document CHEMBL1130553, “Covalent binding of catechols to src family SH2 domains” (Bioorg Med Chem Lett, 1997).

Experiments:
[1] = biological target: T1, Tyrosine-protein kinase Fyn (Homo sapiens, UniProt P06241); assay: Inhibition of peptide EPQ (pY) EEIPI binding to Fyn protein kinase SH2 domain
[2] = biological target: T1, Tyrosine-protein kinase Fyn; assay: Inhibition of peptide EPQ (pY) EEIPI binding to Fyn protein kinase SH2 domain at 100 uM (no inhibition)

T1 sequence (P06241 whole entry, the tested form may be a part): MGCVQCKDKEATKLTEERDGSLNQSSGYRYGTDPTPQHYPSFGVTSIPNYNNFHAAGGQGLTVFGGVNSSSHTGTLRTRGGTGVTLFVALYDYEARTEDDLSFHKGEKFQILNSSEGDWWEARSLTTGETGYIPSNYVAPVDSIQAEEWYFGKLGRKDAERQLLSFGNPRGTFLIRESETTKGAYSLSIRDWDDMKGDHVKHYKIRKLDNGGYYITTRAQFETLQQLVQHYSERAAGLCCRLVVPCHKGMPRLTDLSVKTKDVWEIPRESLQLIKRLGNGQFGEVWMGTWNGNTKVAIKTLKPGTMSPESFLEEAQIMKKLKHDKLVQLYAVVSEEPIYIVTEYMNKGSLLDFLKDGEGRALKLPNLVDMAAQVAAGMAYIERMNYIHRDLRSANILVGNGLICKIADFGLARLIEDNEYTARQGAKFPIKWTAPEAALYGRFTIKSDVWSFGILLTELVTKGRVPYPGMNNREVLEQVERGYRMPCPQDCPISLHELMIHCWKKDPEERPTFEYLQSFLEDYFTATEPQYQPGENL

Row | Structure (SMILES) | IC50 [1] [µM] | IC50 [2] [µM]
1 | Oc1cc2c(cc1O)CC(NCc1ccccc1)C2 | 10 | 
2 | CCCN(CCC)CCc1ccc(O)c(O)c1 |  | > 100
3 | CCCN(CCC)C1CCc2cc(O)c(O)cc2C1 (centres undefined) | 50 | 
4 | CCCN(CCC)C1Cc2cc(O)c(OC)cc2C1 (centres undefined) |  | > 100
5 | CC1=CC(=O)C(=O)C=C1C | 1 | 
6 | CCCN(CCC)C1Cc2ccc(O)cc2C1 (centres undefined) |  | > 100
7 | CCCN(CCC)C1Cc2cc(O)cc(O)c2C1 (centres undefined) |  | > 100
8 | CCCN(CCC)C1Cc2c(O)ccc(O)c2C1 | 50 | 
9 | NC1Cc2cc(O)c(O)cc2C1 | 10 | 
10 | CCCN(CCC)C1Cc2cc(O)c(O)cc2C1 | 10 | 
11 | Oc1cc2c(cc1O)CC(N1CCCCC1)C2 | 10 | 
12 | CCCC1Cc2cc(O)c(O)cc2C1 | 1 | 
13 | NCCc1ccc(O)c(O)c1 [DOPAMINE] |  | > 100
14 | CCCN(CCC)C1Cc2cc(OC)c(OC)cc2C1 [PNU-99194A] |  | > 100
